{
  "source": "patent US20100204151A1",
  "about": "“USE OF A PEPTIDE AS A THERAPEUTIC AGENT” (priority 2007, published 2010)",
  "key": {"HIV-1IIIB": {"system": "HIV-1IIIB", "experiment": "HIV-1 antiviral assay (CPE reduction) in CEM-SS cells", "assay_type": "cell-based", "conditions": "for antiviral activity of positive control compounds: HIV-1 assay validity statement; for % CPE reduction in HIV-1 infected CEM-SS cells: test peptide 10 micrograms per ml, 6 days post-infection, MTS"}, "[1]": {"experiment": "Cytotoxicity in the HBV assay (dye uptake cell viability)", "assay_type": "cell-based", "conditions": "human, HepG2-2.2.15 cells, test peptide 10 micrograms per ml"}, "[2]": {"system": "macrophages prepared from PBMC", "experiment": "TNF alpha production assay (LPS-stimulated macrophages, ELISA)", "assay_type": "cell-based, human", "conditions": "10 micrograms per ml, lipopolysaccharide 200 ng/ml, overnight", "excerpt": "Not stimulated macrophages served as negative background control."}, "[3]": {"system": "Human Peripheral Blood Mononuclear Cells (PBMC)", "experiment": "B cell proliferation assay (SAC plus Interleukin-2 stimulated PBMC, 3H-thymidine)", "assay_type": "cell-based", "conditions": "10 micrograms per ml, 3 days plus 12 hours 3H-thymidine"}, "[4]": {"system": "Human Peripheral Blood Mononuclear Cells (PBMC)", "experiment": "T cell proliferation assay (PHA-stimulated PBMC, 3H-thymidine)", "conditions": "10 micrograms per ml, 3 days plus 12 hours 3H-thymidine"}, "in vitro [5]": {"experiment": "in vitro", "conditions": "human, MRC-5 cells (embryonal lung fibroblasts)"}, "A549 cells [6]": {"system": "A549 cells", "experiment": "Apoptosis prevention assay (C2 ceramide, Annexin-5)", "assay_type": "cell-based, human", "conditions": "10 micrograms per ml, 30 min pretreatment, then C2 ceramide"}, "HCMV strain AD169": {"system": "HCMV strain AD169", "experiment": "HCMV plaque reduction assay in MRC-5 cells"}, "[7]": {"system": "Primary Human endothelial cells (HUVEC)", "experiment": "Endothelial cell migration assay", "assay_type": "cell-based", "conditions": "10 micrograms per ml, 22 hours"}, "in vitro [8]": {"experiment": "in vitro", "conditions": "human, CEM-SS cells"}, "A549 cells [9]": {"system": "A549 cells", "experiment": "Apoptosis induction assay (Annexin-5)", "assay_type": "cell-based, human", "conditions": "10 micrograms per ml, 24 hours", "description": "Human A549 cells (carcinomic human alveolar basal epithelial cells) were utilized in the experiments employing the Annexin-5 apoptosis assay."}, "RAW 264.7 cells": {"system": "RAW 264.7 cells", "experiment": "Phagocytosis assay (Fluorescein-labeled Escherichia coli, flow cytometry)", "assay_type": "cell-based, mouse", "conditions": "10 micrograms per ml, 30 min preincubation, 60 min ingestion"}, "MRSA": {"system": "MRSA", "conditions": "5 micrograms per ml"}, "Streptococcus pneumoniae": {"system": "Streptococcus pneumoniae", "assay_type": "cell-based", "conditions": "5 micrograms per ml"}, "Pseudomonas aeruginosa": {"system": "Pseudomonas aeruginosa", "assay_type": "cell-based", "conditions": "5 micrograms per ml"}, "HUVEC": {"system": "HUVEC", "experiment": "Endothelial tube formation assay", "assay_type": "cell-based, human", "conditions": "10 micrograms per ml, 20 hours", "excerpt": "Positive control was vehicle only."}, "[10]": {"system": "hepatitis B virus (HBV) ayw strain", "experiment": "HBV replication assay in HepG2-2.2.15 cells (TaqMan PCR of secreted HBV DNA)", "assay_type": "cell-based", "conditions": "test peptide 10 micrograms per ml; six days; HBV DNA in supernatant"}, "spleen cells": {"system": "spleen cells", "experiment": "Th1/Th2 cytokine profiling assay (Ovalbumin-restimulated spleen cells, CBA kit)", "assay_type": "cell-based, Balb/c mice", "conditions": "10 micrograms per ml; Ovalbumin restimulation; 72 hours"}, "A549 cells [11]": {"system": "A549 cells", "experiment": "Propidium iodide cell cycle assay", "assay_type": "cell-based, human", "conditions": "10 micrograms per ml, 24 hours, propidium iodide FACS", "protocol": "Human A549 cells (carcinomic human alveolar basal epithelial cells) were utilized in the experiments employing the Propidium iodide cell cycle assay. […] Propidium iodide is an intercalating agent and a fluorescent molecule that can be used to stain DNA. […] Thereafter, cells were pelleted at 1500 rpm for 5 min and resuspended in Propidium iodide solution in PBS. After incubation for 40 min at 37° C., cells were analyzed in the FACS."}, "CEM-SS cells": {"system": "CEM-SS cells", "experiment": "Cytotoxicity in the HIV-1 assay (MTS cell viability)", "conditions": "test peptide 10 micrograms per ml"}},
  "data": [
    {"compound": "CC(C)(C)NC(=O)[C@@H]1CN(Cc2cccnc2)CCN1C[C@@H](O)C[C@@H](Cc1ccccc1)C(=O)N[C@H]1c2ccccc2C[C@H]1O", "note": "[Indinavir, indinavir]", "values": [
      {"measurement": "antiviral activity of positive control compounds", "setting": "HIV-1IIIB", "value": "expected levels of antiviral activity"}
    ]},
    {"compound": "Ac-HWAVGHL-NH2 [Acetyl-GRP (20-26), Ac-His-Trp-Ala-Val-Gly-His-Leu-NH2]", "values": [
      {"measurement": "viability at 144 h, 10 micrograms per ml", "setting": "[1]", "value": 95.3, "unit": "%"},
      {"measurement": "% of LPS induction", "setting": "[2]", "value": 102.4, "unit": "%"},
      {"measurement": "% of SAC/IL2 induced control", "setting": "[3]", "value": 123.6, "unit": "%"},
      {"measurement": "% of PHA induced control", "setting": "[4]", "value": 97.5, "unit": "%"},
      {"measurement": "viability at 144 h", "setting": "in vitro [5]", "value": 100, "unit": "%"},
      {"measurement": "% prevention of ceramide induced apoptosis", "setting": "A549 cells [6]", "value": 0.0, "unit": "%"},
      {"measurement": "% plaque reduction", "setting": "HCMV strain AD169; HCMV in MRC-5 cells, peptide 10 micrograms per ml, 7-10 days", "value": 3.2, "unit": "%"},
      {"measurement": "% inhibition of migration", "setting": "[7]", "value": 50, "unit": "%"},
      {"measurement": "viability at 10 micrograms per ml", "setting": "in vitro [8]", "value": 100, "unit": "%"},
      {"measurement": "% CPE reduction in HIV-1 infected CEM-SS cells", "setting": "HIV-1IIIB", "value": 0.0, "unit": "%"},
      {"measurement": "% of induction", "setting": "A549 cells [9]", "value": 1.1, "unit": "%"},
      {"measurement": "% of control phagocytosis", "setting": "RAW 264.7 cells", "value": 102.9, "unit": "%"},
      {"measurement": "% inhibition", "setting": "MRSA", "value": 0.0, "unit": "%"},
      {"measurement": "% inhibition", "setting": "Streptococcus pneumoniae", "value": 0.0, "unit": "%"},
      {"measurement": "% inhibition", "setting": "Pseudomonas aeruginosa", "value": 0.0, "unit": "%"},
      {"measurement": "% inhibition of tube formation", "setting": "HUVEC", "value": 24, "unit": "%"},
      {"measurement": "% inhibition of HBV replication in HEP G2 cells", "setting": "[10]", "value": 47.8, "unit": "%"},
      {"measurement": "IFNγ spleen cells; TH1 response (% of control)", "setting": "spleen cells", "value": "117.9 % of control"},
      {"measurement": "IL-2 spleen cells (% of control)", "setting": "spleen cells", "value": "202.7 % of control"},
      {"measurement": "IL-4 spleen cells; TH2 response (% of control)", "setting": "spleen cells", "value": "168.7 % of control"},
      {"measurement": "IL-5 spleen cells; TH2 response (% of control)", "setting": "spleen cells", "value": "102.5 % of control"},
      {"measurement": "TNF-a spleen cells; TH1 response (% of control)", "setting": "spleen cells", "value": "145.8 % of control"},
      {"measurement": "Cell cycle analysis G0/G1", "setting": "A549 cells [11]", "value": 59.2},
      {"measurement": "Cell cycle analysis G2/M", "setting": "A549 cells [11]", "value": 9.6},
      {"measurement": "Cell cycle analysis S", "setting": "A549 cells [11]", "value": 31.2}
    ]},
    {"compound": "Nc1nc(O)c2ncn(COC(CO)CO)c2n1", "note": "[Ganciclovir, reference compound]", "values": [
      {"measurement": "antiviral activity of positive control compound", "setting": "HCMV strain AD169; HCMV assay validity statement", "value": "expected levels of antiviral activity"}
    ]},
    {"compound": "Cc1cn([C@H]2C[C@H](N=[N+]=[N-])[C@@H](CO)O2)c(=O)[nH]c1=O", "note": "[AZT]", "values": [
      {"measurement": "% Cell viability", "setting": "CEM-SS cells", "value": 97, "unit": "%"},
      {"measurement": "antiviral activity of positive control compounds", "setting": "HIV-1IIIB", "value": "expected levels of antiviral activity"},
      {"measurement": "% CPE reduction in HIV-1 infected CEM-SS cells", "setting": "HIV-1IIIB", "value": 99, "unit": "%"}
    ]}
  ]
}
